Source: PubChem BioAssay (NCI)
“And” between values parts separate entries of the source, which are not always exact repeats. Equal entries are not always repeated.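 Results reflect a 48-hour exposure of cells in 96-well plates to compound at five concentrations. GI50: concentration for 50% inhibition of growth. TGI: concentration producing complete growth inhibition.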

What was measured:
Assay in all cases: NCI tumour cell line growth inhibition, 48 h
OVCAR-4 ovarian = test system: OVCAR-4 ovarian
HL-60(TB) leukemia = test system: HL-60(TB) leukemia
SF-539 CNS = test system: SF-539 CNS
HCT-15 colon = test system: HCT-15 colon
RXF 393 renal = test system: RXF 393 renal
NCI-H460 lung = test system: NCI-H460 lung
RXF-631 renal = test system: RXF-631 renal
OVCAR-5 ovarian = test system: OVCAR-5 ovarian
SK-MEL-2 melanoma = test system: SK-MEL-2 melanoma
HCC-2998 colon = test system: HCC-2998 colon
HCT-116 colon = test system: HCT-116 colon
HT29 colon = test system: HT29 colon
EKVX NSCLC = test system: EKVX NSCLC
DMS 273 small cell lung = test system: DMS 273 small cell lung
786-0 renal = test system: 786-0 renal
UACC-257 melanoma = test system: UACC-257 melanoma
SK-MEL-28 melanoma = test system: SK-MEL-28 melanoma
SNB-75 CNS = test system: SNB-75 CNS
TK-10 renal = test system: TK-10 renal
SF-295 CNS = test system: SF-295 CNS
OVCAR-3 ovarian = test system: OVCAR-3 ovarian
IGROV1 ovarian = test system: IGROV1 ovarian
HOP-62 NSCLC = test system: HOP-62 NSCLC
RPMI-8226 leukemia = test system: RPMI-8226 leukemia
LXFL 529 NSCLC = test system: LXFL 529 NSCLC
DMS 114 small cell lung = test system: DMS 114 small cell lung
SF-268 CNS = test system: SF-268 CNS
SNB-19 CNS = test system: SNB-19 CNS
SW-620 colon = test system: SW-620 colon
CCRF-CEM leukemia = test system: CCRF-CEM leukemia
U251 CNS = test system: U251 CNS
M19-MEL melanoma = test system: M19-MEL melanoma
CAKI-1 renal = test system: CAKI-1 renal
XF 498 CNS = test system: XF 498 CNS
SK-MEL-5 melanoma = test system: SK-MEL-5 melanoma
DLD-1 colon = test system: DLD-1 colon
OVCAR-8 ovarian = test system: OVCAR-8 ovarian
M14 melanoma = test system: M14 melanoma
MALME-3M melanoma = test system: MALME-3M melanoma
KM12 colon = test system: KM12 colon
UO-31 renal = test system: UO-31 renal
K-562 leukemia = test system: K-562 leukemia
A549 NSCLC = test system: A549 NSCLC
ACHN renal = test system: ACHN renal
SN12C renal = test system: SN12C renal
NCI-H522 lung = test system: NCI-H522 lung
COLO 205 colon = test system: COLO 205 colon
KM20L2 colon = test system: KM20L2 colon
NCI-H23 lung = test system: NCI-H23 lung
HOP-18 NSCLC = test system: HOP-18 NSCLC
LOX IMVI melanoma = test system: LOX IMVI melanoma
UACC-62 melanoma = test system: UACC-62 melanoma
A498 renal = test system: A498 renal
SK-OV-3 ovarian = test system: SK-OV-3 ovarian
MOLT-4 leukemia = test system: MOLT-4 leukemia
HOP-92 NSCLC = test system: HOP-92 NSCLC
MDA-MB-435 = test system: MDA-MB-435
BT-549 breast = test system: BT-549 breast
MCF7 breast = test system: MCF7 breast
HS 578T breast = test system: HS 578T breast
NCI/ADR-RES ovarian = test system: NCI/ADR-RES ovarian
PC-3 prostate = test system: PC-3 prostate
NCI-H226 lung = test system: NCI-H226 lung
MDA-MB-231 breast = test system: MDA-MB-231 breast
DU-145 prostate = test system: DU-145 prostate
MDA-N = test system: MDA-N
SR leukemia = test system: SR leukemia
T-47D breast = test system: T-47D breast
P388/ADR leukemia = test system: P388/ADR leukemia
SNB-78 CNS = test system: SNB-78 CNS
P388 leukemia = test system: P388 leukemia
SN12K1 renal = test system: SN12K1 renal

## COC(=O)CCC(=O)NC1C2CC3CC(C2)CC1C3 (centres undefined)
OVCAR-4 ovarian
  TGI: > 100 µM
HL-60(TB) leukemia
  TGI: > 100 µM
SF-539 CNS
  TGI: > 100 µM
HCT-15 colon
  TGI: > 100 µM
RXF 393 renal
  TGI: > 100 µM
NCI-H460 lung
  TGI: > 100 µM
RXF-631 renal
  TGI: > 100 µM
OVCAR-5 ovarian
  TGI: > 100 µM
SK-MEL-2 melanoma
  TGI: > 100 µM
HCC-2998 colon
  TGI: > 100 µM
HCT-116 colon
  TGI: > 100 µM
HT29 colon
  TGI: > 100 µM
EKVX NSCLC
  TGI: > 100 µM
DMS 273 small cell lung
  TGI: > 100 µM
786-0 renal
  TGI: > 100 µM
UACC-257 melanoma
  TGI: > 100 µM
SK-MEL-28 melanoma
  TGI: > 100 µM
SNB-75 CNS
  TGI: > 95.4 µM
TK-10 renal
  TGI: > 100 µM
SF-295 CNS
  TGI: > 100 µM
OVCAR-3 ovarian
  TGI: > 100 µM
IGROV1 ovarian
  TGI: > 100 µM
HOP-62 NSCLC
  TGI: > 100 µM
RPMI-8226 leukemia
  TGI: > 100 µM
LXFL 529 NSCLC
  TGI: > 100 µM
DMS 114 small cell lung
  TGI: > 100 µM
SF-268 CNS
  TGI: > 100 µM
SNB-19 CNS
  TGI: > 100 µM
SW-620 colon
  TGI: > 100 µM
CCRF-CEM leukemia
  TGI: > 100 µM
U251 CNS
  TGI: > 100 µM
M19-MEL melanoma
  TGI: > 100 µM
CAKI-1 renal
  TGI: > 100 µM
XF 498 CNS
  TGI: > 100 µM
SK-MEL-5 melanoma
  TGI: > 100 µM
DLD-1 colon
  TGI: > 100 µM
OVCAR-8 ovarian
  TGI: > 100 µM
M14 melanoma
  TGI: > 100 µM
MALME-3M melanoma
  TGI: > 100 µM
KM12 colon
  TGI: > 100 µM
UO-31 renal
  TGI: > 100 µM
K-562 leukemia
  TGI: > 100 µM
A549 NSCLC
  TGI: > 100 µM
ACHN renal
  TGI: > 100 µM
SN12C renal
  TGI: > 100 µM
NCI-H522 lung
  TGI: > 100 µM
COLO 205 colon
  TGI: > 100 µM
KM20L2 colon
  TGI: > 100 µM
NCI-H23 lung
  TGI: > 100 µM
HOP-18 NSCLC
  TGI: > 100 µM
LOX IMVI melanoma
  TGI: > 100 µM
UACC-62 melanoma
  TGI: > 100 µM
A498 renal
  TGI: > 100 µM
SK-OV-3 ovarian
  TGI: > 100 µM
MOLT-4 leukemia
  TGI: > 100 µM
HOP-92 NSCLC
  TGI: > 100 µM

## CCOC(=O)c1c(C)c(C)n2c1NC(=O)C2
OVCAR-4 ovarian
  TGI: > 100 µM
HL-60(TB) leukemia
  TGI: > 100 µM
MDA-MB-435
  TGI: > 100 µM
SF-539 CNS
  TGI: > 100 µM
HCT-15 colon
  TGI: > 100 µM
RXF 393 renal
  TGI: > 78.2 µM
NCI-H460 lung
  TGI: > 100 µM
RXF-631 renal
  TGI: > 100 µM
OVCAR-5 ovarian
  TGI: > 100 µM
SK-MEL-2 melanoma
  TGI: > 100 µM
HCC-2998 colon
  TGI: > 100 µM
HCT-116 colon
  TGI: > 100 µM
HT29 colon
  TGI: > 100 µM
EKVX NSCLC
  TGI: > 100 µM
DMS 273 small cell lung
  TGI: > 100 µM
786-0 renal
  TGI: 98.9 µM
BT-549 breast
  TGI: > 100 µM
UACC-257 melanoma
  TGI: > 100 µM
SK-MEL-28 melanoma
  TGI: > 100 µM
SNB-75 CNS
  TGI: > 74.7 µM
MCF7 breast
  TGI: 84 µM
HS 578T breast
  TGI: 70 µM
TK-10 renal
  TGI: > 89.4 µM
SF-295 CNS
  TGI: > 100 µM
OVCAR-3 ovarian
  TGI: > 100 µM
NCI/ADR-RES ovarian
  TGI: 81.5 µM
IGROV1 ovarian
  TGI: > 100 µM
HOP-62 NSCLC
  TGI: > 100 µM
RPMI-8226 leukemia
  TGI: > 100 µM
LXFL 529 NSCLC
  TGI: > 100 µM
DMS 114 small cell lung
  TGI: > 100 µM
SF-268 CNS
  TGI: > 100 µM
SNB-19 CNS
  TGI: > 100 µM
SW-620 colon
  TGI: > 100 µM
CCRF-CEM leukemia
  TGI: > 100 µM
U251 CNS
  TGI: 97.7 µM
M19-MEL melanoma
  TGI: > 100 µM
CAKI-1 renal
  TGI: > 100 µM
XF 498 CNS
  TGI: 61.1 µM
SK-MEL-5 melanoma
  TGI: > 100 µM
DLD-1 colon
  TGI: > 100 µM
OVCAR-8 ovarian
  TGI: > 100 µM
M14 melanoma
  TGI: > 100 µM
MALME-3M melanoma
  TGI: > 85.7 µM
KM12 colon
  TGI: > 100 µM
PC-3 prostate
  TGI: > 100 µM
UO-31 renal
  TGI: > 100 µM
K-562 leukemia
  TGI: > 100 µM
A549 NSCLC
  TGI: > 100 µM
NCI-H226 lung
  TGI: > 100 µM
MDA-MB-231 breast
  TGI: > 100 µM
ACHN renal
  TGI: > 100 µM
DU-145 prostate
  TGI: 64.3 µM
SN12C renal
  TGI: > 100 µM
MDA-N
  TGI: > 100 µM
NCI-H522 lung
  TGI: > 68 µM
COLO 205 colon
  TGI: > 100 µM
SR leukemia
  TGI: > 100 µM
KM20L2 colon
  TGI: > 100 µM
NCI-H23 lung
  TGI: > 68.5 µM
HOP-18 NSCLC
  TGI: > 100 µM
LOX IMVI melanoma
  TGI: > 100 µM
UACC-62 melanoma
  TGI: > 100 µM
A498 renal
  TGI: > 100 µM
T-47D breast
  TGI: 70.7 µM
SK-OV-3 ovarian
  TGI: > 100 µM
MOLT-4 leukemia
  TGI: > 100 µM
HOP-92 NSCLC
  TGI: > 100 µM

## CCCCCC(O)C1C(=O)OC(C)C(O)/C=C/C=C/C=C/C=C/C=C(\C)C(O)C(O)C(O)CC(O)CC(O)CC(O)CC(O)CC1O (centres undefined)
OVCAR-4 ovarian
  TGI: 3.25 µM
HL-60(TB) leukemia
  TGI: > 100 µM
MDA-MB-435
  TGI: > 100 µM
P388/ADR leukemia
  TGI: 3.8 µM
HCT-15 colon
  TGI: 5.93 µM
RXF 393 renal
  TGI: 1.89 µM
NCI-H460 lung
  TGI: 3.44 µM
HCC-2998 colon
  TGI: 3.26 µM
DMS 273 small cell lung
  TGI: 2.84 µM
786-0 renal
  TGI: > 100 µM
BT-549 breast
  TGI: > 100 µM
HS 578T breast
  TGI: > 100 µM
TK-10 renal
  TGI: > 100 µM
NCI/ADR-RES ovarian
  TGI: 3.73 µM
DMS 114 small cell lung
  TGI: 2.92 µM
M19-MEL melanoma
  TGI: 2.59 µM
XF 498 CNS
  TGI: 2.84 µM
DLD-1 colon
  TGI: 3.32 µM
SNB-78 CNS
  TGI: 4.69 µM
M14 melanoma
  TGI: > 100 µM
KM12 colon
  GI50: 11.8 µM and 1.77 µM
PC-3 prostate
  TGI: > 100 µM
UO-31 renal
  TGI: 3.27 µM
MDA-MB-231 breast
  TGI: > 100 µM
ACHN renal
  TGI: > 100 µM
DU-145 prostate
  TGI: > 100 µM
MDA-N
  TGI: > 100 µM
NCI-H522 lung
  TGI: 3.3 µM
SR leukemia
  TGI: > 100 µM
KM20L2 colon
  TGI: 5.64 µM
HOP-18 NSCLC
  TGI: 4.61 µM
P388 leukemia
  TGI: 2420 nM
T-47D breast
  TGI: > 100 µM
SN12K1 renal
  TGI: 2970 nM
HOP-92 NSCLC
  TGI: 3.21 µM
